Measurements taken from US5153179A, “Medicament with improved penetration of the tissue membrane” (Max-Planck-Gesellschaft zur Foerderung der Wissenschaft e.V., priority 1983, dated 1992).
Values joined by “and” are separate entries in the source; they are usually repeats but may differ in a detail not shown here. Identical values can stand only once.

Experiment: Blood-brain barrier penetration by the method of Oldendorf (radioactively marked active material, A. carotis injection, brain radioactivity after 15 seconds)
Settings: for percentage proportion of active material which has passed the blood-brain barrier, with C5: with addition of glycerol 1-pentyl ether; for percentage proportion of active material which has passed the blood-brain barrier, with C5 / percentage proportion of active material which has passed the blood-brain barrier, with C3: about 0.3 Osmol/l; for percentage proportion of active material which has passed the blood-brain barrier, with C5 / percentage proportion of active material which has passed the blood-brain barrier, with C3 / percentage proportion of active material which has passed the blood-brain barrier, without: A. carotis, 15 seconds, + dissolved in inger albumin; for percentage proportion of active material which has passed the blood-brain barrier, with C3: with addition of glycerol 1-propyl ether; for percentage proportion of active material which has passed the blood-brain barrier, without: without addition of a compound of the general formula
Method: The effectiveness of the medicament according to the invention was tested according to the method of Oldendorf (Brain-Res., 24, 372-376 (1970)). […] In the case of the medicament according to the invention, the administration took place into the A. carotis. 15 seconds later, the experimental animal was decapitated, the brain removed and the radioactivity bound therein determined. […] The numerical values give the percentage proportion of active material which has passed the blood-brain barrier. As comparative substance, there was employed an isotonic buffer solution. The compound of the general formula was present in iso-osmolar concentration, which corresponds to about 0.3 Osmol/ 1. in the solution administered.
In the case of the experiments according to the method of Oldendorf, the active materials were used in amounts of between 10 and 100 μmol. There was thereby obtained no dependency of the penetration percentage of the active material concentration, i.e. that with increasing amount of active material, the percentage passing the blood-brain barrier remained about the same. In the case of methotrexate as active material, the penetration was also investigated in the case of higher concentrations.
The penetration achieved also depends upon the amount of glycerol derivative of the general formula used. Referring to the results given in Table 1, e.g. with endoxan and the C3 additive, there was achieved a penetration of scarcely 20%, whereas with an equal amount of the C5 additive the penetration lay above 50%. However, if one increases the amount of the C3 derivative 2.5 fold, then the percentage penetrating also increases to about 50%.

Molecule | percentage proportion of active material which has passed the blood-brain barrier, with C5 [%] | percentage proportion of active material which has passed the blood-brain barrier, with C3 | percentage proportion of active material which has passed the blood-brain barrier, without [%] | penetration improvement (FIG. 2, M.W. above 600) | proportion of active material advancing to the place of action at higher concentrations (higher concentrations, up to above 10 mMole) | percentage proportion of active material passing the barrier at higher concentrations (up to above 10 mMole) | percentage penetrating with increased amount of the C3 derivative (amount of the C3 derivative increased 2.5 fold)
CC[C@]1(O)C[C@@H]2CN(CCc3c([nH]c4ccccc34)[C@@](C(=O)OC)(c3cc4c(cc3OC)N(C)[C@H]3[C@@](O)(C(=O)OC)[C@H](OC(C)=O)[C@]5(CC)C=CCN6CC[C@]43[C@@H]65)C2)C1 [vinblastine] | 44.3 ± 6.7 | 4.2 ± 0.6% | 5.4 ± 1.7 | – | – | – | –
bleomycin | 5.7 ± 1.8 | – | 4.9 ± 1.4 | relatively small | – | – | –
CN(Cc1cnc2nc(N)nc(N)c2n1)c1ccc(C(=O)N[C@@H](CCC(=O)O)C(=O)O)cc1 [methotrexate] | 26.2 ± 5.8 | 5.7 ± 1.0% | 4.7 ± 0.6 | – | a linear increase | practically the same percentage proportion of active material passing the barrier | –
O=c1[nH]cc(F)c(=O)[nH]1 [5-fluorouracil] | 13.0 ± 0.1 | – | 3.7 ± 1.0 | – | – | – | –
O=C1c2c(O)ccc(O)c2C(=O)c2c(NCCNCCO)ccc(NCCNCCO)c21 [mitoxandrone] | 25.1 ± 2.0 | – | 1.8 ± 0.1 | – | – | – | –
CCCCCCCCCCCCCCCCCCOCC(COP(=O)([O-])OCC[N+](C)(C)C)OC (centres unmarked) [ET 18-O-CH3] | – | 16.4 ± 4.1% | 4.5 ± 0.8 | – | – | – | –
COc1cccc2c1C(=O)c1c(O)c3c(c(O)c1C2=O)C[C@@](O)(C(C)=O)C[C@@H]3O[C@H]1C[C@H](N)[C@H](O)[C@H](C)O1 [daunomycin] | 76.8 ± 7.0 | 24.1 ± 3.3% | 10.8 ± 2.7 | – | – | – | –
O=P1(N(CCCl)CCCl)NCCCO1 (centres unmarked) [endoxan] | – | 18.9 ± 0.3% and ~20% | 11.4 ± 0.4 | – | – | – | about 50%
